# Reference: publication PMC7484762 (2020)
# Experiments:
# [1] = system: 92-94A (ligated, with 3' tether, annealed to biotin-DNA-Cy5) (DNA:RNA, riboswitch) UAUCAGUUAUAUGACUGACGGAACGUGGAAUUAACCACAUGAAGUAUAACGAUGACAAUGCCGACCGUCUGGGCGAACAAGCCUAGAUUGUAAAUUCAUUAGCGGUAUUCCGGAAUUGCCGUAAUCGCG/CGCGATTACGGCAATTCCGGAATACCGCTAATG; experiment: smFRET; conditions: 150 mM KCl, 10 mM MgCl2; 50 mM HEPES-KOH pH 7.4; thermally refolded; partially responsive
# [2] = system: 79-nt RNA ending at A79 (RNA, riboswitch) UAUCAGUUAUAUGACUGACGGAACGUGGAAUUAACCACAUGAAGUAUAACGAUGACAAUGCCGACCGUCUGGGCGAACA; experiment: ITC; conditions: 150 mM KCl, 10 mM MgCl2; 50 mM HEPES-KOH pH 7.4, 37 °C; apparent; exact value in Supplementary Figure 1b
# [3] = system: WT (ligated F. ulcerans ZTP riboswitch with 3' tether, annealed to biotin-DNA-Cy5) (DNA:RNA, riboswitch) UAUCAGUUAUAUGACUGACGGAACGUGGAAUUAACCACAUGAAGUAUAACGAUGACAAUGCCGACCGUCUGGGCGAACAAGCCUAGAUUGUCGGUUCAUUAGCGGUAUUCCGGAAUUGCCGUAAUCGCG/CGCGATTACGGCAATTCCGGAATACCGCTAATG; experiment: smFRET; conditions: 150 mM KCl, 10 mM MgCl2; 50 mM HEPES-KOH pH 7.4; thermally refolded with 1 mM ZMP, ~10% bound; vectorially folded 38%
# [4] = system: 81-83, 92-94A (ligated, with 3' tether, annealed to biotin-DNA-Cy5) (DNA:RNA, riboswitch) UAUCAGUUAUAUGACUGACGGAACGUGGAAUUAACCACAUGAAGUAUAACGAUGACAAUGCCGACCGUCUGGGCGAACAAAAAUAGAUUGUAAAUUCAUUAGCGGUAUUCCGGAAUUGCCGUAAUCGCG/CGCGATTACGGCAATTCCGGAATACCGCTAATG; experiment: smFRET; conditions: 150 mM KCl, 10 mM MgCl2; 50 mM HEPES-KOH pH 7.4; thermally refolded; majority binds
# [5] = system: 81-83A (ligated, with 3' tether, annealed to biotin-DNA-Cy5) (DNA:RNA, riboswitch) UAUCAGUUAUAUGACUGACGGAACGUGGAAUUAACCACAUGAAGUAUAACGAUGACAAUGCCGACCGUCUGGGCGAACAAAAAUAGAUUGUCGGUUCAUUAGCGGUAUUCCGGAAUUGCCGUAAUCGCG/CGCGATTACGGCAATTCCGGAATACCGCTAATG; experiment: smFRET after vectorial folding (Rep-X); conditions: 150 mM KCl, 10 mM MgCl2; 50 mM HEPES pH 7.4; larger bound fraction than WT
# [6] = system: Δterm (ligated F. ulcerans ZTP aptamer with 3' tether, annealed to biotin-DNA-Cy5) (DNA:RNA, riboswitch) UAUCAGUUAUAUGACUGACGGAACGUGGAAUUAACCACAUGAAGUAUAACGAUGACAAUGCCGACCGUCUGGGCGUUCAUUAGCGGUAUUCCGGAAUUGCCGUAAUCGCG/CGCGATTACGGCAATTCCGGAATACCGCTAATG; experiment: smFRET titration (TIRF), Langmuir fit; conditions: 150 mM KCl, 10 mM MgCl2, 50 mM HEPES-KOH pH 7.4, thermally refolded, Pmax 71%, 1.5 μM after vectorial folding
smiles,measurement,setting,value
NC(=O)c1ncn([C@@H]2O[C@H](COP(=O)(O)O)[C@@H](O)[C@H]2O)c1N,binding,[1],weak
same,Kd,[2],~ 1 μM
same,binding,[3],weak
same,binding,[4],yes
same,binding,[5],yes
same,apparent KD,[6],1.3 µM
